Patent publication US6632981B1, “DNA sequences encoding polypeptides having beta-1,3-glucanase activity” (Novartis Finance Corporation, priority 1988, dated 2003)

Experiments:
[1] = tested on: PR-1 promoter-LUC gene fusion; test: Chemical induction of the Arabidopsis PR-1 promoter-LUC gene fusion; type: in vivo
Text: pAtPR1-R was cleaved with XhoI and SacI and transferred to SalI/SacI cleaved pCIB200 to create a binary vector construction (pAtPR1-S) suitable for Arabidopsis transformation (see example 28). pAtPR1-S was then transferred to Agrobacterium tumefaciens strain A136/pCIB542 for transfer to Arabidopsis Dijon-0 using the method described by Wen-jun and Forde, Nucl. Acids Res. 17: 8385-8386 (1989). T2 or […] lines carrying the PR1-LUC transgene in the homozygous state were generated for chemical induction analysis.
Leaves of transgenic Arabidopsis lines carrying the PR-1 promoter-LUC gene fusion were treated by spraying with 0.15 g/ml INA (isonicotinic acid) for 48 h. Five days later, sprayed leaves were analyzed for luciferase activity using the Promega Luciferase Assay System (Cat. #E 1500). […] In other assays, luciferase activity was measured by imaging lines for bioluminescence using intensified cameras (VIM) and photon-counting image processors (ARGUS-50 or ARGUS-100) from Hamamatsu Photonic Systems (Bridgewater, N.J.). Leaves were sprayed with INA and subsequently with a 5 mM solution of D-luciferin (Analytical Bioluminescence Laboratories, San Diego, Calif.) 24 h before and then immediately before imaging.

[2] = tested on: salicylic acid; test: Antagonism of the salicylic acid cell signal on exogenous application to a plant; type: in vivo; conditions: applied exogenously to a plant
Text: Those skilled in the art will appreciate that other means can be employed to achieve the same effect. For instance, a second method involves the expression or overexpression in a transformed plant of a gene encoding an enzyme which catalyzes the modification; e.g., degradation, of a metabolic precursor of the signal molecule so that the plant is rendered incapable of producing the signal molecule. A third method involves the external application to the plant of antagonists of the target cell signal. […] Instead, inhibition of the cell signal response is effected. […] See, Yang and Hoffman, Ann. Rev. Plant Physiol. 35:155-189 (1984).

[3] = tested on: chemically regulatable chimeric genes coding for GUS, AHAS or BT; test: Primer extension assay for mRNA of chemically regulatable chimeric genes; type: in vivo; conditions: callus or regenerated plant material from transgenic plants; level proportional to amount of regulator applied
Procedure: 50 g of total RNA is lyophilized in a 500 l Eppendorf tube. The RNA is resuspended in 30 l of radiolabeled probe solution and heated to 70′ C. for 10 minutes. The tube is slowly cooled to 37° C. and allowed to incubate overnight. Without removing the tube from the 37° C. water bath, 2 l of 10×reverse-transcriptase buffer (500 mM Tris-HCl, pH 7.5, 400 mM KCl, 30 mM MgCl2), 1 l 5 mg/ml bovine serum albumin, 5 l 100 mM dithiothreitol, 5 l 10×dNTPs (10 mM of each dNTP in H2O), 3 l H 20, 2 l RNasin (80 units), and 2 l reverse transcriptase (400 units) are added and the reaction is incubated at 37° C. for 30 minutes. To stop the reaction, 5 l of 3 M sodium acetate, pH 5, and 150 l absolute ethanol are added. The tube is left at −20° C. for 30 minutes, the precipitate is collected by centrifugation, washed with 80% ethanol and allowed to air-dry. The precipitate is resuspended in 10-20 l of loading dye (90% formamide, 0.05% bromophenol blue, 0.05% xylene cyanol, 1 mM EDTA) and the extension products are separated on a 6% sequencing gel (Maniatis, T. et al., supra). Extension products are visualized by autoradiography.
Plant materials induced and harvested as in Examples 140 to 142 are assayed for the induction of mRNA species by the isolation of RNA and the primer extension assay as described in Example 6.
The level of mRNA is proportional to the amount of regulator applied.

[4] = tested on: SAR response; test: Chemical induction of SAR in nahG-expressing plants; type: in vivo, Nicotiana tabacum cv Xanthi-nc; conditions: plants of lines nahG-3, -8 and -10 (blocked in SAR response to disease infection) treated with the inducing chemical
Text: Three lines, nahG-3, -8 and -10, were shown above to express high levels of nahG mRNA and salicylate hydroxylase protein, and to be blocked in their SAR response to disease infection.

[5] = tested on: PR-1a promoter fused to the GUS reporter gene; test: Chemical regulation of PR-1a promoter/GUS in nahG-expressing plants; type: in vivo; conditions: progeny of PR-1a promoter/GUS plants crossed to nahG-3, -8 and -10
Text: Consequently, the chemical regulation of the PR-1a gene promoter can be utilized without the activation of the endogenous cell signal SA.

[6] = tested on: PR-1a promoter fused to a gene encoding the delta-endotoxin of Bacillus thuringensis; test: Chemical regulation of PR-1a promoter/Bacillus thuringiensis delta-endotoxin gene in nahG-expressing plants; type: in vivo; conditions: progeny of PR-1a promoter/delta-endotoxin plants crossed to nahG-3, -8 and -10

O=C(O)c1ccncc1 [INA, isonicotinic acid]
bioluminescence (imaging, photon counting) ([1]; compared to water-treated controls, D-luciferin 5 mM): strongly induced bioluminescence | luciferase activity, induction over controls ([1]; leaves sprayed with 0.15 g/ml for 48 h, analyzed five days later, Promega Luciferase Assay System): 144 fold

CC[Si](CC)(CC)c1ccccc1C(=O)O [o-triethylsilyl benzoic acid]
effect on the salicylic acid cell signal [2]: antagonistic effect

O=C(OCc1ccccc1)c1cccc2nnsc12 [benzyl benzo-1,2,3-thiadiazole-7-carboxylate]
level of mRNA of the chimeric gene (GUS, AHAS or BT primer), primer extension assay [3]: elevated levels of mRNA

CCC(C)N(N)C(=O)c1cccc2nnsc12 (centres unmarked) [benzo-1,2,3-thiadiazole-7-carboxylic acid N-sec-butylhydrazide]
level of mRNA of the chimeric gene (GUS, AHAS or BT primer), primer extension assay [3]: elevated levels of mRNA

O=C(O)c1cc(Cl)nc(Cl)c1 [2,6-dichloroisonicotinic acid]
level of mRNA of the chimeric gene (GUS, AHAS or BT primer), primer extension assay [3]: elevated levels of mRNA

CCCOC(=O)c1cccc2nnsc12 [n-propyl benzo-1,2,3-thiadiazole-7-carboxylate]
level of mRNA of the chimeric gene (GUS, AHAS or BT primer), primer extension assay [3]: elevated levels of mRNA

O=C(O)c1cccc2nnsc12 [benzo-1,2,3-thiadiazole-7-carboxylic acid]
level of mRNA of the chimeric gene (GUS, AHAS or BT primer), primer extension assay [3]: elevated levels of mRNA | SAR response [4]: shown to possess the SAR response | GUS expression [5]: express GUS | endotoxin gene expression [6]: express the endotoxin gene
